{"source": "patent EP4653001A1", "about": "“TREATMENT, DIAGNOSIS AND/OR PROGNOSIS OF MITOCHONDRIAL DISEASES” (Universidad Autónoma de Madrid, priority 2024, dated 2025)", "type_in_all_cases": "cell-based", "key": {"[1]": {"tested_on": "PC KO and ACLY KO cells", "experiment": "Intracellular malate levels in PC KO and ACLY KO 143B cells", "conditions": "double ablation of PC and ACLY, 100 nM, 72 h", "description": "1-5.0×10^6 cells were harvested on dry ice with 1 mL pre-chilled 80% HPLC-grade methanol (Fluka Analytical). The cell mixture was incubated for 15 min on dry ice prior to centrifugation at 18,000 × g for 10 min at 4°C. The supernatant was retained, and the remaining cell pellet was resuspended in 800 µL chilled 80% methanol and centrifuged. Supernatant was combined with the previous retention and was lyophilized using a SpeedVac (Thermo Fisher). Lyophilized samples were resuspended in 20 µL ultrapure water and subjected to metabolomics profiling using the AB/SCIEX 5500 QTRAP triple quadrupole instrument. Data analysis was performed using the GiTools software. 13C-labeled glutamine and glucose was acquired in SIGMA (605166 and 389374).\nTo assess the relative contribution of PC and ACLY to cell death phenotype in ETC deficient cells upon PPP inhibition, we treated PC KO and ACLY KO cells with Piericidin, G6PDi or both. […] A plausible explanation for the lack of phenotype in both PC and ACLY KO cells could be the upregulation of compensatory mechanisms whereby PC depletion would cause an enhanced rerouting of glutamine through ACLY and vice versa. […]"}, "[2]": {"tested_on": "mouse cortical neurons", "experiment": "L-lactate release in neurons (Lactate-Glo)", "description": "Primary cultures of C57BL/6 mouse cortical neurons were prepared from embryos between embryonic days 16.5 and 17.5 and seeded onto pre-treated plates coated with Poly-L-lysine hydrobromide (500 µg/ml). We used Neurobasal medium without D-glucose and sodium pyruvate (ThermoFisher) to modulate D-glucose levels, depending on the experiment (2.5 mM, 5 mM, or 25 mM).\nL-lactate levels were measured in mouse cortical neurons using Lactate-Glo™ Assay (Promega, #J5021) following the original protocol.\nIncreased lactate secretion is considered a good indicator of enhanced glycolytic rates, which is a common feature of ETC-inhibited cells as they switch from OXPHOS to glycolysis to maintain ATP levels. […] We culture 143B cells in the presence of Piericidin for 24 h and PPP activity and lactate release, as a proxy of glycolysis, were measured. As expected, lactate detection in the media was higher in CI-inhibited cells. […] Next, we wonder if in this context, glucose can be overused by glycolysis and therefore diverted away from the PPP. Diseases associated with impaired mitochondrial function negatively impact high energy demanding tissues such as the brain. As such, neurons that are highly sensitive to ETC inhibition also rely strongly on glucose metabolism. Thus, we used mouse cortical neurons to determine the rates of glycolysis and PPP as glucose levels become limiting. Control and Piericidin treated neurons where cultured in media containing supraphysiological (25 mM), physiological (5 mM) or subphysiological concentrations of glucose (2,5 mM). […] Decreased PPP activity under low glucose (2,5 mM) correlated with a rapid decline in NADPH/NADP+ levels in CI-inhibited cells. Conversely, glucose availability had no effect on ATP levels at this timepoint."}, "[3]": {"tested_on": "143B cells", "experiment": "PPP activity measurement in 143B cells", "conditions": "24 h", "description": "The determination of pentose-phosphate pathway (PPP) activity was conducted by assessing the difference between 14CO2 production from 1-14C-glucose, which decarboxylates through the 6-phosphogluconate dehydrogenase-catalyzed reaction, and that of 6-^14C-glucose, which decarboxylates through the tricarboxylic acid cycle.\nIncreased lactate secretion is considered a good indicator of enhanced glycolytic rates, which is a common feature of ETC-inhibited cells as they switch from OXPHOS to glycolysis to maintain ATP levels. […] We culture 143B cells in the presence of Piericidin for 24 h and PPP activity and lactate release, as a proxy of glycolysis, were measured. As expected, lactate detection in the media was higher in CI-inhibited cells. […] Next, we wonder if in this context, glucose can be overused by glycolysis and therefore diverted away from the PPP. Diseases associated with impaired mitochondrial function negatively impact high energy demanding tissues such as the brain. As such, neurons that are highly sensitive to ETC inhibition also rely strongly on glucose metabolism. Thus, we used mouse cortical neurons to determine the rates of glycolysis and PPP as glucose levels become limiting. Control and Piericidin treated neurons where cultured in media containing supraphysiological (25 mM), physiological (5 mM) or subphysiological concentrations of glucose (2,5 mM). […]"}, "[4]": {"tested_on": "mouse primary astrocytes", "experiment": "Morphology, proliferation and viability of primary astrocytes", "description": "All cell lines, 143b, HeLa, U2OS, and transmitochondrial cybrids carrying mutation in CI (ND2), CIII (CytB) or CIV (Cox2) subunits, were maintained in DMEM high glucose (HyClone), 10% FBS and 1% P/S at 37°C with 5% CO2. Mitochondrial mutant cells were cultured with supplementation of 50 µg/mL uridine. The selected cancer cell lines with different levels of malic enzyme (HCC15, KYSE410, CAKI1, J82, MDAMB453, Colo320, NCIH1703) were obtained from the DSMZ-German Collection of Microorganisms and Cell Cultures GmbH and cultured in the same DMEM 10% FBS medium. OCI-Lys3 and RCH-ACV cell lines (cells in suspension), were obtained from the same repository and cultured in RPMI 10% FBS medium. Transfections for gain- and loss-of-function studies were performed according to the manufacturer's instructions using the polyfect reagent (Qiagen, 301107). For cell number and proliferation experiments, cells were seeded in 12 or 6-well plates and allowed to proliferate for the specified durations. Subsequently, cells were trypsinized and quantified using a hemocytometer (NanoEnTek, DHC-N01). Cell viability was quantified using propidium iodide (PI; 50 µg/ml) staining.\nPrimary cultures of C57BL/6 mouse cortical astrocytes were derived from postnatal day 2-3 pups. […]"}}}
{"smiles": "CC=C(C)C(O)C(C)C=C(C)C=CCC(C)=CCc1nc(OC)c(OC)c(O)c1C", "note": "(stereo not shown) [Piericidin, Piericidin A]", "values": [{"measurement": "intracellular malate levels", "setting": "[1]", "value": "parallel decrease"}, {"measurement": "lactate secretion", "setting": "[2]; 5 mM glucose, trend, did not reach statistical significance", "value": "increased lactated secretion"}, {"measurement": "levels of lactate", "setting": "[2]; limited glucose availability (2,5 mM), 100 nM, 16 h", "value": "preserving"}, {"measurement": "lactate", "setting": "[2]; neurons cultured in 25 mM glucose, 100 nM, 16 h", "value": "significantly upregulation"}, {"measurement": "PPP activity", "setting": "[3]", "value": "significant increase"}, {"measurement": "proliferation", "setting": "[4]; PC and ME1 knockdown astrocytes vs WT controls, 100nM, 96 h", "value": "proliferated less"}, {"measurement": "morphology, proliferation, or overall viability", "setting": "[4]; mouse primary astrocytes", "value": "no discernible impact"}]}
